Assay results reported in US9345791B2, “Ligands for targeting of S1P receptors for in vivo imaging and treatment of diseases” (Westfaelische Wilhelms-Universitaet Muenster, priority 2011, dated 2016).

How the values were obtained:
[1] = tested on: Lymphocytes (T- and B-cells); test: Immunosuppressive activity in vivo: peripheral blood lymphopenia, flow cytometry; parameters: species or system mice; details: for B cells / CD4+ / CD8+ / WBC: intraperitoneally at 1.25 microgramm/kg body weight, blood drawn 24 hours later; for WBC: peripheral blood; for immunosuppressive action / effectiveness (in words): summary of table 1 in text
Method: The compounds of the invention were tested for immunosuppressive biological activity in vivo based on the known ability of S1P analogues to induce peripheral blood lymphopenia due to lymphocyte trapping in secondary lymph organs. The immunosuppressive activity of compound 21 (555558) and of compound 27 (555890) was compared with the corresponding activity a non-fluorinated analogue compound 7 (5551091), and non-ω (or close to ω)-fluorinated compounds (compounds 8 (555535) and 12 (555517)) as well as with FTY720 as a standard. The compounds were injected intraperitoneally at 1.25 microgramm/kg body weight in a total volume of 200 microliter. 24 hours later, blood was drawn from the retroorbital plexus in 17.8 mM EDTA as an anti-coagulant. Lymphocytes (T- and B-cells) were analyzed by flow cytometry as following: After lysis of red blood cells by BD Pharm Lyse (Becton Dickinson) in 50 microliter blood, cells were washed, resuspended in 100 microliter FACS buffer (1% BSA in PBS), and antibodies to CD4, CD8 and B220 (Becton Dickinson) were added (1 microliter antibody per sample each) for 30 minutes at room temperature. After 3 washes, cells were then analyzed by flow cytometry in a Gallios Beckman Coulter flow cytometer.

[2] = tested on: G-protein-coupled cell surface receptors (S1PR) designated S1P1-5; details: cited from earlier work

| SMILES | B cells ([1]; cell count) | CD4+ ([1]; cell count) | CD8+ ([1]; cell count) | B cells ([1]; percentage) [%] | CD4+ ([1]; percentage) [%] | CD8+ ([1]; percentage) [%] | WBC [1] | Kd [2] [nM] | immunosuppressive action / effectiveness (in words) [1] | melting point [°C] |
| --- | --- | --- | --- | --- | --- | --- | --- | --- | --- | --- |
| CCC/C=C(\F)CC(N)COP(=O)(O)O (stereo not shown) [Compound B1087] | 2.49 10^6/mL | 0.42 10^6/mL | 0.59 10^6/mL | 35.20 | 5.90 | 8.40 | 7.06 10^6/mL |  |  |  |
| CCC/C=C/CC(N)COP(=O)(O)O (stereo not shown) [Compound B1088] | 2.76 10^6/mL | 0.34 10^6/mL | 0.49 10^6/mL | 38.60 | 4.80 | 6.90 | 7.15 10^6/mL |  |  |  |
| CCCCCCCCCCCCC/C=C/[C@@H](O)[C@@H](N)COP(=O)(O)O [Compound S1P, Sphingosine-1-phosphate] |  |  |  |  |  |  |  | 8 to 20 |  |  |
| CCCCCCCCc1ccc(CCC(N)(CO)CO)cc1 [FTY 720, 2-Amino-2-(4-octylphenethyl)propane-1,3-diol, reference compound] | 0.61 10^6/mL | 0.02 10^6/mL | 0.04 10^6/mL | 20.08 | 1.10 | 0.30 | 3.69 10^6/mL |  |  |  |
| CCC/C=C/CC(N)CO (stereo not shown) [SSS182] | 2.91 10^6/mL | 0.43 10^6/mL | 0.48 10^6/mL | 42.20 | 6.30 | 7.00 | 6.90 10^6/mL |  |  |  |
| CCCCCCCCCCCCCCC(F)CC(N)(CO)CO (stereo not shown) [SSS517, 2-Amino-2-(2-fluorohexadecyl)propan-1,3-diol] | 4.81 10^6/mL | 0.54 10^6/mL | 0.60 10^6/mL | 42.40 | 4.80 | 5.30 | 11.35 10^6/mL |  | very moderate immunosuppressive action | 96 to 98 |
| CCCCCCCCCCCCCCCCC(N)(CO)CF (stereo not shown) [SSS535, 2-Amino-2-(fluoromethyl)octadecan-1-ol] | 3.54 10^6/mL | 0.42 10^6/mL | 0.39 10^6/mL | 50.20 | 6.00 | 5.50 | 7.05 10^6/mL |  | diminishes effectiveness | 52 |
| NC(CO)(CO)CCCCCCCCCCCCCCCCF [SSS558, 2-Amino-2-(16-fluorohexadecyl)propan-1,3-diol] | 1.52 0.04 10^6/mL | 0.15 0.08 10^6/mL | 0.13 0.04 10^6/mL |  |  |  | 3.74 0.70 10^6/mL |  |  | 77 |
| CCCCCCCCCCCCCCC(F)CC(N)(CO)CO.Cl (stereo not shown) [SSS564, 2-Amino-2-(2-fluorohexadecyl)propan-1,3-diol hydrochloride] | 5.52 10^6/mL | 0.65 10^6/mL | 0.98 10^6/mL | 42.20 | 5.00 | 7.50 | 13.07 10^6/mL |  |  | 108 to 110 |
| CCCCCCCCCCCCC/C=C/CC(N)(CO)CO [SSS822, (E)-2-Amino-2-(hexadec-2-en-1-yl)propane-1,3-diol] | 1.17 0.33 10^6/mL | 0.10 0.01 10^6/mL | 0.12 0.05 10^6/mL |  |  |  | 5.02 1.04 10^6/mL |  |  | 57 |
| CN(C)c1cccc2c(S(=O)(=O)NCCCCCCCCCCCCCCCCC(N)(CO)CO)cccc12 [SSS846, N-(17-Amino-18-hydroxy-17-(hydroxymethyl)octadecyl)-5-(dimethylamino)naphthalene-1-sulfonamide] | 5.32 10^6/mL | 0.98 10^6/mL | 0.52 10^6/mL | 57.30 | 10.60 | 5.60 | 9.28 10^6/mL |  |  | 72 to 75 |
| CCCCCCCCCCCCC/C=C(\F)CC(N)(CO)CO [SSS862, (Z)-2-Amino-2-(2-fluorohexadec-2-en-1-yl)propane-1,3-diol] | 3.23 10^6/mL | 0.27 10^6/mL | 0.41 10^6/mL | 60.90 | 5.00 | 7.80 | 5.31 10^6/mL |  |  | 68 to 70 |
| CCCCCCCCCCCCC/C=C(/F)CC(N)(CO)CO [SSS864, (E)-2-Amino-2-(2-fluorohexadec-2-en-1-yl)propane-1,3-diol] | 3.41 10^6/mL | 0.28 10^6/mL | 0.37 10^6/mL | 64.70 | 5.40 | 7.00 | 5.27 10^6/mL |  |  | 74 |
| NC(CO)(CO)CCCCCCCCCCCCCCCF [SSS890, 2-Amino-2-(15-fluoropentadecyl)propane-1,3-diol] |  |  |  |  |  |  |  |  |  | 85 |
| CCCCCCCCCCCCCCC(N)(CO)CO [SSS943, 2-Amino-2-tetradecylpropane-1,3-diol] | 0.60 10^6/mL | 0.04 10^6/mL | 0.04 10^6/mL | 35.21 | 2.25 | 2.35 | 1.73 10^6/mL |  |  |  |
| CCCCCCCCCCCCCCCCC(N)(CO)CO [SSS1091, 2-Amino-2-hexadecylpropane-1,3-diol] | 1.27 0.26 10^6/mL | 0.09 0.02 10^6/mL | 0.08 0.01 10^6/mL |  |  |  | 4.14 0.60 10^6/mL |  |  |  |
| CCCCCCCCc1ccc(C(O)CC(N)(CO)CO)cc1 (stereo not shown) [SSS 563, 3-Amino-3-(hydroxymethyl)-1-(4-octylphenyl)butane-1,4-diol] |  |  |  |  |  |  |  |  |  | 74 to 76 |
| NC(CO)(CO)CCc1ccc(CCCCCCF)cc1 [SSS 944, 2-Amino-2-(4-(6-fluorohexyl)phenethyl)propane-1,3-diol] |  |  |  |  |  |  |  |  |  | 108 |
